Earlier results on one compound are cited in patent US20150216850A1 (priority 2012, published 2015).

For data set [1], the system named is Huntington's disease patients.
Data set [2] deals with Huntington's disease patients. The note with it: twice-daily doses of 45 mg over 12 weeks.

Take `CCCN1CCC(c2cccc(S(C)(=O)=O)c2)CC1` [pridopidine]: in data set [1] (45 mg daily or 90 mg daily for 6 months), the “tertiary endpoint UHDRS-TMS and individual items within the mMS (gait, dysarthria)” value is on record as “statistically significant effect”. In addition, the “primary endpoint: effect on subset of motor symptoms defined in the mMS” value in data set [1] (45 mg daily or 90 mg daily, at 26 weeks) was “not met”. Besides, the “effect on total motor function” value in data set [2] is recorded as “significant effect”. Besides, the “symptomatic relief (hand movements, gait and balance)” value with patients with HD was “significant symptomatic relief”.
